Measured values reported in publication PMC7115580 (European Journal of Medicinal Chemistry, 2017).
Where a name gives a salt, the structure may show the parent alone. Read-outs that look alike come from different tables or passages of the source.

Experiments:
[1] = metabolites of proguanil ref 32; cited from earlier work
hDHFR = hDHFR (Homo sapiens, UniProt P00374); type: biochemical; details: Lineweaver-Burk plot at 3, 6 and 12 µM; substrate DHF
[2] = molecular target: wild type A/M2 proton channel (Influenza A virus, UniProt P0DOF5); type: biochemical; details: 100 μM; TEVC, Xenopus oocytes; data not shown
Chain of wild type A/M2 proton channel (P0DOF5 whole entry, looked up): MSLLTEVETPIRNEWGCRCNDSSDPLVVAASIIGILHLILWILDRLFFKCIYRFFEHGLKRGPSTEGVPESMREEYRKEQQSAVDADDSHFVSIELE

HeLa cells [3] = tested on: HeLa cells
[4] = tested on: human airway epithelial Calu-3 cells; details: data not shown
HeLa cells [5] = tested on: HeLa cells; remark: listed apart in the source
Reovirus-1 = assay: organism not typed; type: cell-based; details: Vero, read-out: Antiviral activity: EC50, Reovirus-1
Punta Toro virus = assay: microbe, parasite or virus in culture; type: cell-based; details: Vero, read-out: Antiviral activity: EC50, Punta Toro virus
Para-influenza-3 virus = assay: organism not typed; type: cell-based; details: Vero, read-out: Antiviral activity: EC50, Para-influenza-3 virus

Chain of hDHFR (P00374 whole entry): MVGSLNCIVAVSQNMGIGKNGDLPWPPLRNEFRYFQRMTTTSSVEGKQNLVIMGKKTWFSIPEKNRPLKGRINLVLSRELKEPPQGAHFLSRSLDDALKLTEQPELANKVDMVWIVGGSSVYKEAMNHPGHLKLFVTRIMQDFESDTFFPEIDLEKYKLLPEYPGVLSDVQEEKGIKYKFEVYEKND

SMILES: N=C(N)NC(=N)Nc1ccc(Cl)cc1 [1-(4-chlorophenyl)biguanide]
- Share of the total drug concentration in plasma [1]: ~23%

SMILES: CC1(C)N=C(N)N=C(N)N1c1ccc(Cl)cc1 [Compound 1, cycloguanil, reference compound]
- Inhibition pattern towards the substrate (hDHFR): competitive inhibition pattern
- Inhibition of wild type M2 channel [2]: neither of the three compounds significantly inhibited
- Cytotoxicity: MCC (HeLa cells [3]; HeLa cells, microscopy): >100 µM
- Cytotoxicity: MCC (Vero cells; Vero cells, microscopy): >100 µM
- Cytotoxicity MCC [4]: > 100 µM
- Share of the total drug concentration in plasma [1]: about 30%

SMILES: CC1(C)N=C(N)N=C(N)N1c1ccccc1 [Compound 2]
- Cytotoxicity: MCC (HeLa cells [3]; HeLa cells, microscopy): >100 µM
- Cytotoxicity: MCC (Vero cells; Vero cells, microscopy): >100 µM

SMILES: Cc1ccc(N2C(N)=NC(N)=NC2(C)C)cc1 [Compound 3]
- Cytotoxicity: MCC (HeLa cells [3]; HeLa cells, microscopy): >100 µM
- Cytotoxicity: MCC (Vero cells; Vero cells, microscopy): >100 µM

SMILES: COc1ccc(N2C(N)=NC(N)=NC2(C)C)cc1 [Compound 4]
- Cytotoxicity: MCC (HeLa cells [3]; HeLa cells, microscopy): >100 µM
- Cytotoxicity: MCC (Vero cells; Vero cells, microscopy): >100 µM

SMILES: CC1(C)N=C(N)N=C(N)N1c1ccc(F)cc1 [Compound 5]
- Cytotoxicity: MCC (HeLa cells [3]; HeLa cells, microscopy): >100 µM
- Cytotoxicity: MCC (Vero cells; Vero cells, microscopy): >100 µM

SMILES: CC1(C)N=C(N)N=C(N)N1c1ccc(Br)cc1 [Compound 6]
- Cytotoxicity: MCC (HeLa cells [3]; HeLa cells, microscopy): >100 µM
- Cytotoxicity: MCC (Vero cells; Vero cells, microscopy): >100 µM

SMILES: CC1(C)N=C(N)N=C(N)N1c1ccc([N+](=O)[O-])cc1 [Compound 7]
- Cytotoxicity: MCC (HeLa cells [3]; HeLa cells, microscopy): >100 µM
- Cytotoxicity: MCC (Vero cells; Vero cells, microscopy): >100 µM

SMILES: CC1(C)N=C(N)N=C(N)N1c1ccc(C(=O)O)cc1 [Compound 8]
- Cytotoxicity: MCC (HeLa cells [3]; HeLa cells, microscopy): >100 µM
- Cytotoxicity: MCC (Vero cells; Vero cells, microscopy): >100 µM

SMILES: CCOC(=O)c1ccc(N2C(N)=NC(N)=NC2(C)C)cc1 [Compound 9]
- Cytotoxicity: MCC (HeLa cells [3]; HeLa cells, microscopy): >100 µM
- Cytotoxicity: MCC (Vero cells; Vero cells, microscopy): >100 µM

SMILES: CC1(C)N=C(N)N=C(N)N1c1ccccc1Cl [Compound 10]
- Cytotoxicity: MCC (HeLa cells [3]; HeLa cells, microscopy): >100 µM
- Cytotoxicity: MCC (Vero cells; Vero cells, microscopy): >100 µM

SMILES: CC1(C)N=C(N)N=C(N)N1c1cccc(Cl)c1 [Compound 11]
- Cytotoxicity: MCC (HeLa cells [3]; HeLa cells, microscopy): >100 µM
- Cytotoxicity MCC [4]: > 100 µM

SMILES: CC1(C)N=C(N)N=C(N)N1c1cccc(F)c1 [Compound 12, 4,6-Diamino-2,2-dimethyl-1-(3-fluorophenyl)-1,2-dihydrotriazine hydrochloride]
- Cytotoxicity: MCC (HeLa cells [3]; human): ≥100 µM

SMILES: CC1(C)N=C(N)N=C(N)N1c1cccc(Br)c1 [Compound 13]
- Cytotoxicity: MCC (HeLa cells [3]; HeLa cells, microscopy): ≥100 µM
- Cytotoxicity: MCC (Vero cells; Vero cells, microscopy): >100 µM
- Cytotoxicity MCC [4]: > 100 µM

SMILES: CC1(C)N=C(N)N=C(N)N1c1cccc(C(F)(F)F)c1 [Compound 14]
- Inhibition of wild type M2 channel [2]: neither of the three compounds significantly inhibited
- Cytotoxicity: MCC (HeLa cells [3]; HeLa cells, microscopy): ≥100 µM
- Cytotoxicity MCC (HeLa cells [5]; dihydrofolic acid 1.0 μM): 20 µM
- Cytotoxicity MCC (HeLa cells [5]; dihydrofolic acid 2.6 μM): 20 µM
- Cytotoxicity MCC (HeLa cells [5]; dihydrofolic acid 16 μM): 20 µM
- Cytotoxicity MCC (HeLa cells [5]; dihydrofolic acid 40 μM): 20 µM
- Cytotoxicity MCC (HeLa cells [5]; dihydrofolic acid 400 μM): 20 µM
- Cytotoxicity MCC (HeLa cells [5]; human): 20 µM
- Cytotoxicity MCC (HeLa cells [5]; independent of whether dihydrofolic acid was present or not): 20 µM
- Cytotoxicity MCC [4]: > 100 µM

SMILES: CC1(C)N=C(N)N=C(N)N1c1ccc(Cl)cc1Cl [Compound 15]
- Cytotoxicity: MCC (HeLa cells [3]; HeLa cells, microscopy): >100 µM
- Cytotoxicity: MCC (Vero cells; Vero cells, microscopy): >100 µM

SMILES: CC1(C)N=C(N)N=C(N)N1c1ccc(Cl)c(Cl)c1 [Compound 16]
- Inhibition of wild type M2 channel [2]: neither of the three compounds significantly inhibited
- Cytotoxicity: MCC (HeLa cells [3]; HeLa cells, microscopy): >100 µM
- Cytotoxicity MCC [4]: > 100 µM

SMILES: CC1(C)N=C(N)N=C(N)N1c1cc(C(F)(F)F)cc(C(F)(F)F)c1 [Compound 17, 4,6-Diamino-2,2-dimethyl-1-(3,5-ditrifluoromethylphenyl)-1,2-dihydrotriazine hydrochloride]
- Cytotoxicity: MCC (HeLa cells [3]; human): ≥100 µM
- Cytotoxicity: MCC (Vero cells; African green monkey): >100 µM

SMILES: CCC1(C)N=C(N)N=C(N)N1c1ccc(Cl)cc1 (stereo not drawn) [Compound 18]
- Cytotoxicity: MCC (HeLa cells [3]; HeLa cells, microscopy): >100 µM
- Cytotoxicity: MCC (Vero cells; Vero cells, microscopy): >100 µM

SMILES: CC(C)C1(C)N=C(N)N=C(N)N1c1ccc(Cl)cc1 (stereo not drawn) [Compound 19]
- Cytotoxicity: MCC (HeLa cells [3]; HeLa cells, microscopy): >100 µM
- Cytotoxicity: MCC (Vero cells; Vero cells, microscopy): >100 µM

SMILES: NC1=NC2(CCCC2)N(c2ccc(Cl)cc2)C(N)=N1 [Compound 20]
- Cytotoxicity: MCC (HeLa cells [3]; HeLa cells, microscopy): >100 µM
- Cytotoxicity: MCC (Vero cells; Vero cells, microscopy): >100 µM

SMILES: NC1=NC2(CCCC2)N(c2cccc(Cl)c2)C(N)=N1 [Compound 21, 1-(3-Chlorophenyl)-2,2-cyclotetramethylene-4,6-diamino-1,2-dihydrotriazine hydrochloride]
- Cytotoxicity: MCC (HeLa cells [3]; HeLa cells, microscopy): ≥100 µM
- Cytotoxicity: MCC (Vero cells; Vero cells, microscopy): >100 µM

SMILES: NC1=NC2(CCCC2)N(c2cccc(C(F)(F)F)c2)C(N)=N1 [Compound 22, 2,2-Cyclotetramethylene-4,6-diamino-1-(3-trifluoromethylphenyl)-1,2-dihydrotriazine hydrochloride]
- Cytotoxicity: MCC (HeLa cells [3]; HeLa cells, microscopy): ≥100 µM
- Cytotoxicity: MCC (Vero cells; Vero cells, microscopy): >100 µM

SMILES: NC1=NC2(CCCCC2)N(c2cccc(Cl)c2)C(N)=N1 [Compound 24]
- Cytotoxicity: MCC (HeLa cells [3]; HeLa cells, microscopy): ≥100 µM
- Cytotoxicity: MCC (Vero cells; Vero cells, microscopy): >100 µM

SMILES: NC1=NC2(CCCCC2)N(c2cccc(C(F)(F)F)c2)C(N)=N1 [Compound 25, 2,2-Cyclopentamethylene-4,6-diamino-1-(3-trifluoromethylphenyl)-1,2-dihydrotriazine hydrochloride]
- Cytotoxicity: MCC (HeLa cells [3]; HeLa cells, microscopy): ≥100 µM
- Cytotoxicity: MCC (Vero cells; Vero cells, microscopy): >100 µM
- Cytotoxicity MCC [4]: > 100 µM

SMILES: CCCC1N=C(N)N=C(N)N1c1ccc(Cl)cc1 (stereo not drawn) [Compound 27]
- Cytotoxicity: MCC (HeLa cells [3]; HeLa cells, microscopy): >100 µM
- Cytotoxicity: MCC (Vero cells; Vero cells, microscopy): >100 µM

SMILES: NC1=NC(c2ccccc2)N(c2ccc(Cl)cc2)C(N)=N1 (stereo not drawn) [Compound 28]
- Cytotoxicity: MCC (Vero cells; Vero cells, microscopy): >100 µM

SMILES: CC1(C)N=C(N)N=C(Nc2ccc(Cl)cc2)N1 [Compound 29]
- Cytotoxicity: MCC (HeLa cells [3]; HeLa cells, microscopy): >100 µM
- Cytotoxicity: MCC (Vero cells; Vero cells, microscopy): >100 µM

SMILES: [H]/N=C(\N/C(=N/[H])Nc1ccc(Cl)cc1)NC(C)C [Compound 30, proguanil, reference compound]
- Cytotoxicity: MCC (HeLa cells [3]; HeLa cells, microscopy): >100 µM
- Cytotoxicity: MCC (Vero cells; Vero cells, microscopy): 20 µM

SMILES: CCc1nc(N)nc(N)c1-c1ccc(Cl)cc1 [Compound 32, pyrimethamine, reference compound]
- Cytotoxicity: MCC (HeLa cells [3]; HeLa cells, microscopy): ≥100 µM
- Cytotoxicity MCC [4]: > 100 µM

SMILES: COc1c(C)c2c(c(O)c1C/C=C(\C)CCC(=O)O)C(=O)OC2 [Mycophenolic acid]
- EC50 (Reovirus-1): 1.8 µM
- EC50 (Punta Toro virus): 20 µM

SMILES: NC(=O)c1ncn([C@@H]2O[C@H](CO)[C@@H](O)[C@H]2O)n1 [Ribavirin]
- EC50 (Para-influenza-3 virus): 112 µM
